Reference: patent US6794396B2, “Substituted pyridines useful for inhibiting cholesteryl ester transfer protein activity” (Pharmacia Corporation, priority 1998, dated 2004)
Like-named read-outs stand apart in the source and are kept apart here. Values belong to the molecule of their own block, whether it stands above or below them.

Target: T1, CETP (Homo sapiens, UniProt P11597)
T1 construct: made in house; host or cells: CHO cells (serum-free conditioned medium)
T1 sequence (P11597 18-493): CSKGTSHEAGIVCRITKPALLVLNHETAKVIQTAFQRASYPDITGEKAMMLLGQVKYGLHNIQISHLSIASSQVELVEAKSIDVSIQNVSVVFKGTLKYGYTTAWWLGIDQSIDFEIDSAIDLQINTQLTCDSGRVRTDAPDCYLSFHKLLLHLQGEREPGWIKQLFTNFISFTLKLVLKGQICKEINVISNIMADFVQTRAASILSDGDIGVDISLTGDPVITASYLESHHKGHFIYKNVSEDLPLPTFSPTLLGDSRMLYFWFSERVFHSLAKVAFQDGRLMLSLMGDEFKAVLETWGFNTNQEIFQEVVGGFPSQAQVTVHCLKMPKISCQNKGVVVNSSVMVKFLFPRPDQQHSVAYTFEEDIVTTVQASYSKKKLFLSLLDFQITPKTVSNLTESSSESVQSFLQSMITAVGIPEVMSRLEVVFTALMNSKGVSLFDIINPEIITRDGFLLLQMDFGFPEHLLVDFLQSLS
Test: CETP activity in vitro: transfer of [3H]CE from HDL donor to LDL acceptor particles
Type: biochemical
Method: The ability of compounds to inhibit CETP were assessed using an in vitro assay that measured the rate of transfer of radiolabeled cholesteryl ester ([^3H]CE) from HDL donor particles to LDL acceptor particles. Details of the assay are provided by Glenn et al. (“Quantification of Cholesteryl Ester Transfer Protein (CETP): A) CETP Activity and B) Immunochemical Assay of CETP Protein,” Meth. Enzymol., Glenn and Melton (Meth. Enzymol., 263, 339-351 (1996), which is incorporated herein by reference). CETP was obtained from the serum-free conditioned medium of CHO cells transfected with a cDNA for CETP (Wang, S. et al. J. Biol Chem. 267, 17487-17490 (1992), which is incorporated herein by reference).
To measure CETP activity, [^3H]CE-labeled HDL, LDL, CETP and assay buffer (50 mM tris(hydroxymethyl)amino-methane, pH 7.4; 150 mM sodium chloride; 2 mM ethylenediamine-tetraacetic acid; 1% bovine serum albumin) were incubated in a volume of 200 μl, for 2 hours at 37° C. in 96 well plates. LDL was differentially precipitated by the addition of 50 μl of 1% (w/v) dextran sulfate/0.5 M magnesium chloride, mixed by vortex, and incubated at room temperature for 10 minutes The solution (200μl) was transferred to a filter plate (Millipore). After filtration, the radioactivity present in the precipitated LDL was measured by liquid scintillation counting.
This value was defined as the IC50.

[1] = 50% inhibition of [3H]CE transfer from HDL to LDL, 2 hours at 37° C.; read-out: IC50(μm)
[2] = Table 6, compounds of formula T-6; read-out: IC50
[3] = IC50(μm), 50% inhibition of [3H]CE transfer from HDL to LDL, 2 hours at 37° C.
[4] = Table 7, compounds of formula T-7; read-out: IC50

SMILES: COC(=O)c1cc(CSC(=S)N(C)C)c(C(F)(F)F)nc1C(F)F [Compound 43, Methyl 2-(Difluoromethyl)-5-[(dimethylaminothionothio)methyl]-6-(trifluoromethyl)-3-pyridinecarboxylate]
IC50 [1]: 50 µM

SMILES: COC(=O)c1c(C(F)F)nc(C(F)(F)F)c(CSc2ccccn2)c1CC(C)C [Compound 216, Methyl 5-[(2-Pyridyl)thiomethyl]-2-(difluoromethyl)-4-(2-methylpropyl)-6-(trifluoromethyl)-3-pyridinecarboxylate]
IC50 [2]: 40 µM

SMILES: CCOC(C)Sc1c(C(F)(F)F)nc(C(F)F)c(C(=O)OC)c1CC(C)C (centres unmarked) [Compound 146, Methyl 2-(Difluoromethyl)-5-(1-ethoxyethylthio)-4-(2-methylpropyl)-6-(trifluoromethyl)-3-pyridinecarboxylate]
% transfer at 10 μm (10 μm): 67^D %

SMILES: CCSC(C)c1c(C(F)(F)F)nc(C(F)F)c(C(=O)OC)c1CC1CC1 (centres unmarked) [Compound 21]
IC50 [3]: 40 µM

SMILES: COC(=O)c1c(C(F)F)nc(C(F)(F)F)c(C(=O)Oc2ccc(C(C)(C)C)cc2C(C)(C)C)c1CC(C)C [Compound 168, 3-Methyl 5-(2,4-Di-t-butylphenyl) 2-(Difluoromethyl)-4-(2-methylpropyl)-6-(trifluoromethyl)-3,5-pyridicarboxylate]
IC50 [1]: 60 µM

SMILES: COC(=O)c1c(C(F)F)nc(C(F)(F)F)c(C(=NC(C)C)SC)c1CC(C)C [Compound 58, Methyl 2-(difluoromethyl)-5-{[isopropylimino(methylthio)methyl]}-4-(2-methylpropyl)-6-(trifluoromethyl)-3-pyridinecarboxylate]
IC50 [3]: 55 µM

SMILES: COC(=O)c1c(C(F)F)nc(C(F)(F)F)c(C(=O)Oc2ccc(C(C)C)cc2Cc2ccc(F)cc2)c1CC(C)C [Compound 170, 3-Methyl 5-[2-(4-Fluorobenzyl)-4-isopropylphenyl]2-(Difluoromethyl)-4-(2-methylpropyl)-6-(trifluoromethyl)-3,5-pyridicarboxylate]
IC50 [1]: 40 µM

SMILES: COC(=O)c1c(C(F)F)nc(C(F)(F)F)c(C2OCCCO2)c1CC(C)C [Compound 59, Methyl 2-(Difluoromethyl)-5-(1,3-dioxan-2-yl)-4-(2-methylpropyl)-6-(trifluoromethyl)-3-pyridinecarboxylate]
IC50 [3]: 55 µM

SMILES: COC(=O)c1c(C(F)F)nc(C(F)(F)F)c([S+]([O-])CCCl)c1CC(C)C (centres unmarked) [Compound 111, Methyl 5-(Chloroethylsulfinyl)-2-(difluoromethyl)-4-(2-methylpropyl)-6-(trifluoromethyl)-3-pyridinecarboxylate]
remaining activity at 100 µM (2 h, read-out: % Transfer @ 100 μm): 78%

SMILES: CCSc1c(C(F)(F)F)nc(C(F)F)c(C(=O)OC)c1C1CCC1 [Compound 66]
IC50 [3]: 60 µM

SMILES: COC(=O)c1c(C(F)F)nc(C(F)(F)F)c(N=C(CBr)OC)c1CC(C)C [Compound 16]
IC50 [3]: 30 µM

SMILES: COC(=O)c1c(C(F)F)nc(C(F)(F)F)c(SCc2ccc(OC)cc2)c1CC(C)C [Compound 221]
IC50 [4]: 40 µM

SMILES: COC=C(Br)c1c(C(F)(F)F)nc(C(F)F)c(C(=O)OC)c1CC1CC1 [Compound 35, Methyl 5-(1-Bromo-2-methoxyethenyl)-4-(cyclopropylmethyl)-2-(difluoromethyl)-6-(trifluoromethyl)-3-pyridinecarboxylate]
IC50 [3]: 45 µM

SMILES: CCOC(=O)c1c(C(F)(F)F)nc(C(F)F)c(C(O)c2ccc(C(F)(F)F)cc2)c1-c1ccccc1 (centres unmarked) [Compound 296]
IC50 (Table 8; read-out: IC50): > 100 µM

SMILES: OCc1c(C(F)F)nc(C(F)(F)F)c(COCc2ccccc2)c1-c1ccc(F)cc1 [Compound 281]
IC50 (Table 8; read-out: IC50): > 100 µM

SMILES: C=CC(O)c1c(C(F)F)nc(C(F)(F)F)c(C(=O)OC)c1CC(C)C (centres unmarked) [Compound 295]
IC50 (IC50, Table 8): > 100 µM

SMILES: CCOC(=O)c1c(C(F)(F)F)nc(C(F)(F)F)c(C(=O)OCC)c1CC(C)C [Compound 36, Diethyl 2,6-Bis(trifluoromethyl)-4-(2-methylpropyl)-3,5-pyridinedicarboxylate]
IC50 [3]: 45 µM

SMILES: COC(=O)c1c(C(F)F)nc(C(F)(F)F)c(CSc2cc(Cl)ccc2Cl)c1CC(C)C [Compound 195, Methyl 5-[(2,5-Dichlorophenyl)thiomethyl]-2-(difluoromethyl)-4-(2-methylpropyl)-6-(trifluoromethyl)-3-pyridinecarboxylate]
IC50 [2]: 50 µM

More lines, now with the values ahead:

IC50 [2]: 20 µM
SMILES: COC(=O)c1c(C(F)F)nc(C(F)(F)F)c(CSc2ccc(OC)cc2)c1CC(C)C [Compound 199, Methyl 5-[(4-Methoxyphenyl)thiomethyl]-2-(difluoromethyl)-4-(2-methylpropyl)-6-(trifluoromethyl)-3-pyridinecarboxylate]

remaining activity at 100 µM (2 h; read-out: % Transfer @ 100 μm): 75%
SMILES: COC(=O)c1c(C(F)F)nc(C(F)(F)F)c(C2CC(C)N(O)C2)c1CC1CC1 (centres unmarked) [Compound 107, Methyl 4-(Cyclopropylmethyl)-2-(difluoromethyl)-5-(1-hydroxy-5-methyl-3-pyrrolidinyl)-6-(trifluoromethyl)-3-pyridinecarboxylate]

IC50 [1]: 40 µM
SMILES: COC(=O)c1c(C(F)F)nc(C(F)(F)F)c(N=C(OC)SC)c1CC(C)C [Compound 27, Methyl 2-(Difluoromethyl)-5-{[methoxy (methylthio)methylene]amino)-4-(2-methylpropyl)-6-(trifluoromethyl)-3-pyridinecarboxylate]

IC50 (Table 8; read-out: IC50): 40 µM
SMILES: CCOC(=O)c1c(C(F)(F)F)nc(C(F)F)c(CN2CCCC2)c1-c1ccc(F)cc1 [Compound 294]

IC50 [4]: 25 µM
SMILES: COC(=O)c1c(C(F)F)nc(C(F)(F)F)c(SCc2ccccc2)c1CC(C)C [Compound 219]

IC50 [2]: 40 µM
SMILES: COC(=O)c1c(C(F)F)nc(C(F)(F)F)c(CSc2ccccc2Cl)c1CC(C)C [Compound 200, Methyl 5-[(2-Chlorophenyl)thiomethyl]-2-(difluoromethyl)-4-(2-methylpropyl)-6-(trifluoromethyl)-3-pyridinecarboxylate]

IC50 (Table 8; read-out: IC50): 7 µM
SMILES: O=Cc1c(C(F)F)nc(C(F)(F)F)c(C(F)c2ccc(C(F)(F)F)cc2)c1-c1ccc(F)cc1 (centres unmarked) [Compound 251]

IC50 (Table 8; read-out: IC50): 5 µM
SMILES: OCc1c(C(F)(F)F)nc(C(F)F)c(C(F)c2ccc(C(F)(F)F)cc2)c1-c1ccc(F)cc1 (centres unmarked) [Compound 249]

IC50 [4]: 30 µM
SMILES: COC(=O)c1c(C(F)F)nc(C(F)(F)F)c(SCc2c3ccccc3cc3ccccc23)c1CC(C)C [Compound 227]

IC50 [2]: 50 µM
SMILES: COC(=O)c1c(C(F)F)nc(C(F)(F)F)c(CSc2ccc(Br)cc2OC(F)(F)F)c1CC(C)C [Compound 206, Methyl 5-[(4-Bromo-2-(trifluoromethoxy)phenyl)thiomethyl]-2-(difluoromethyl)-4-(2-methylpropyl)-6-(trifluoromethyl)-3-pyridinecarboxylate]

IC50 (Table 8; read-out: IC50): > 100 µM
SMILES: CC(C)c1ccc(C(O)c2c(C(F)(F)F)nc(C(F)F)c(CO)c2-c2ccccc2)cc1 (centres unmarked) [Compound 266]

IC50 [4]: 30 µM
SMILES: COC(=O)c1c(C(F)F)nc(C(F)(F)F)c(SCc2cc(Cl)cc3c2OCOC3)c1CC(C)C [Compound 246, Methyl 5[(6-chloro-1,3-benzodioxan-8-yl)methylthio]-2-(difluoromethyl)-4-(2-methylpropyl)-6-(trifluoromethyl)-3-pyridinecarboxylate]

IC50 (Table 8; read-out: IC50): > 100 µM
SMILES: OC(c1ccc(C(F)(F)F)cc1)c1c(C(F)F)nc(C(F)(F)F)c(COCc2ccccc2)c1-c1ccc(F)cc1 (centres unmarked) [Compound 276]

IC50 [2]: 45 µM
SMILES: COC(=O)c1c(C(F)F)nc(C(F)(F)F)c(CSc2cccc(OC)c2)c1CC(C)C [Compound 211, Methyl 5-[(3-Methoxyphenyl)thiomethyl]-2-(difluoromethyl)-4-(2-methylpropyl)-6-(trifluoromethyl)-3-pyridinecarboxylate]
